system: tumour; assay: Antitumour activity in mice, subcutaneous tumour implant; assay type: in vivo; settings: 30 mg/kg, i.p., day 1 to day 12; tumour weight on day 13
Protocol: Example C: Antitumour Activity
The antitumour activity of the compounds of the invention was studied in accordance with the protocol described by R. I. Geran et al, Cancer Chemotherapy Reports, (1972), Part 3, pages 3 et seq.
Mice were divided at random into treated groups (11 mice per group) and a control group of 40 mice.
Tumour fragments were implanted on day 0 (subcutaneous implant). The compounds to be tested were administered for 12 days (day 1 to day 12) by the i.p. route.
The average weight of the tumour was determined on day 13 after implantation. The percentage inhibition was calculated in accordance with the following formula: [formula] As an example, the compound of Example 27 gave the following results: […]

Row | Structure (SMILES) | % inhibition (tumour weight) [%]
1 | O=C(CCl)NC(=O)O[C@@H]1CC[C@]2(CO2)[C@](CCCCCc2ccccc2)(OC(=O)NC(=O)CCl)C1 (relative stereo) [Example 27, (3S*,4R*,6R*)-4,6-Dichloroacetylcarbamoyloxy-4-(5-phenylpentyl)-1-oxa-spiro[2.5]octane] | 56

same assay, conditions: 60 mg/kg, i.p., day 1 to day 12; tumour weight on day 13

Row | Structure (SMILES) | % inhibition (tumour weight) [%]
2 | O=C(CCl)NC(=O)O[C@@H]1CC[C@]2(CO2)[C@](CCCCCc2ccccc2)(OC(=O)NC(=O)CCl)C1 (relative stereo) [Example 27, (3S*,4R*,6R*)-4,6-Dichloroacetylcarbamoyloxy-4-(5-phenylpentyl)-1-oxa-spiro[2.5]octane] | 82

system: chicken embryo chorio-allantoic membrane; assay: Inhibition of neovascularization of chicken embryo chorioallantoic membrane; assay type: in vivo; settings: avascular zone greater than 4 mm in diameter, 48 hours after disk placed on CAM on day 6
Protocol: Example B: Inhibition of Neovascularization of Chicken Embryo Chorioallantoic Membrane
This test was carried out with chicken embryos in the manner described above (Crum R., Szabo S. and Folkman J., Science, (1985), 230, 1375-1378). The fertilized eggs are incubated at 37° C. (D0). A pocket of air is created by removing 1 ml of albumin (D3), then a window is cut from the shell (D4) and the vitelline membrane is removed in order to separate the chorio-allantoic membrane (CAM).
The products to be tested are dissolved in ethanol and placed on methylcellulose disks which are dried and placed on the CAM on day 6. From 8 to 16 eggs are used per group. The zone situated round the disk is then examined 48 hours later. The eggs having an avascular zone greater than 4 mm in diameter are counted and the results are expressed as a percentage of eggs having an avascular zone.

Row | Structure (SMILES) | % of eggs having an avascular zone [%]
3 | CC1OC1(C)[C@@]1(O)C[C@H](OC(=O)NC(=O)CCl)CC[C@]12CO2 (relative stereo) [Example 7, (3S*; 4R*, 6R*)-6-Chloroacetylcarbamoyloxy-4-hydroxy-4-(2,3-di-methyl-2-oxiranyl)-1-oxa-spiro[2.5]octane] | 81 ± 10
4 | CC1([C@]23O[C@H]2[C@H](OC(=O)NC(=O)CCl)CC[C@]32CO2)CO1 (single isomer, unassigned) [Example 30 Diastereoisomer B, (1R*,2S*,5R*,6S*)-5-Chloroacetylcarbamoyloxy-1-[(2S* and 2R*)-(2-methyloxiran-2-yl)]-2-(2-spiro-oxiranyl)-7-oxabicyclo[4.1.0]heptan] | 68 ± 5
5 | CC1([C@@]23OC(=O)O[C@@H]2[C@H](OC(=O)NC(=O)CCl)CC[C@]32CO2)CO1 (relative stereo) [Example 23, (3S*,4S*,5R*,6R*)-6-Chloroacetylcarbamoyloxy-4-(2-methyl-oxiran-2-yl)-1-oxa-spiro[2.8]benzo[1.3]dioxol-2-one] | 78 ± 7
6 | CC1([C@]23O[C@H]2[C@@H](OC(=O)NC(=O)CCl)CC[C@]32CO2)CO1 (single isomer, unassigned) [Example 17 Diastereoisomer A, (1R*,2S*,5S*,6S*)-5-Chloroacetylcarbamoyloxy-1-[(2S* and 2R*)-(2-methyloxiran-2-yl)]-2-(2-spiro-oxiranyl)-7-oxabicyclo[4.1.0]heptan] | 74 ± 7
7 | O=C(CCl)NC(=O)O[C@H]1CC[C@]2(CO2)[C@@](CCCCCc2ccccc2)(OC(=O)NC(=O)CCl)C1 (relative stereo) [Example 28, (3S*,4S*6S*)-4,6-Dichloroacetylcarbamoyloxy-4-(5-phenylpentyl)-1-oxa-spiro[2.5]octane] | 90 ± 4
8 | CC1([C@]23O[C@H]2[C@H](OC(=O)NC(=O)CCl)CC[C@]32CO2)CO1 (single isomer, unassigned) [Example 30 Diastereoisomer A, (1R*,2S*,5R*,6S*)-5-Chloroacetylcarbamoyloxy-1-[(2S* and 2R*)-(2-methyloxiran-2-yl)]-2-(2-spiro-oxiranyl)-7-oxabicyclo[4.1.0]heptan] | 75 ± 7
9 | O=C(CCl)NC(=O)O[C@H]1CC[C@]2(CO2)[C@](O)(C2OC2CCCc2ccccc2)[C@H]1Br (single isomer, unassigned) [Example 13] | 70 ± 16
10 | C=C(C)[C@]12O[C@H]1[C@H](OC(=O)NC(=O)CCl)CC[C@]21CO1 (relative stereo) [Example 29, (1S*,2S*,5R*,6S*)-5-Chloroacetylcarbamoyloxy-1-isopropenyl-2(2-spiro-oxiranyl)-7-oxabicyclo[4.1.0]heptane] | 66 ± 6
11 | CC1OC1(C)[C@@]1(O)C[C@H](OC(=O)NC(=O)CCl)CC[C@]12CO2 (relative stereo) [Example 6, (3S*, 4R*, 6R*)-6-Chloroacetylcarbamoyloxy-4-hydroxy-4-(2,3-dimethyloxiran-2-yl)-1-oxa-spiro[2.5]octane] | 79 ± 9
12 | O=C(CCl)NC(=O)O[C@@H]1CC[C@]2(CO2)[C@@]2(CCCCCc3ccccc3)O[C@@H]12 (relative stereo) [Example 18, (1S*,2S*,5R*,6S*)-5-Chloroacetylcarbamoyloxy-2-(2-spiro-oxiranyl)-1-(5-phenyl-pentyl)-7-oxabicyclo[4.1.0]heptane] | 69 ± 6
13 | C[C@@]1(OC(=O)NC(=O)CCl)CC[C@@H](OC(=O)NC(=O)CCl)[C@@H]2O[C@@]21CCCCCc1ccccc1 (relative stereo) [Example 19, (1S*,2R*,5R,*6S*)-2,5-Dichloroacetylcarbamoyloxy-2-methyl-1-(5-phenylpentyl)-7-oxabicyclo[4.1.0]heptane] | 76 ± 9
14 | CC(C)CCCC12OC1C(OC(=O)NC(=O)CCl)CCC21CO1 (stereo not drawn) [Example 21, 5-Chloroacetylcarbamoyloxy-2-(2-spiro-oxiranyl)-1-(4-methyl-pentyl)-7-oxabicyclo[4.1.0]heptane] | 76 ± 6
15 | O=C(CCl)NC(=O)O[C@@H]1CC[C@]2(CO2)[C@@](O)(CCCCCc2ccccc2)[C@@H]1Br (relative stereo) [Example 10, (3S*, 4S*, 5R*, 6R*)-5-Bromo-6-chloroacetylcarbamoyloxy-4-hydroxy-4-(5-phenylpentyl)-1-oxa-spiro[2.5]octane] | 73 ± 11

— patent publication US5648382A, “Cyclohexane compounds” (Adir et Compagnie, priority 1995, dated 1997)
